In ChEMBL document CHEMBL1146948, “Synthesis and biological activity of diaryl ether inhibitors of malarial enoyl acyl carrier protein reductase. Part 2: 2'-substituted triclosan derivatives” (Bioorg Med Chem Lett, 2006) one finds EC50 and IC50 data, which are given here for 29 compounds.

The test system of assay [1] is Plasmodium falciparum. Briefly: Antimalarial activity against Plasmodium falciparum 3D7. In kind it is functional, organism-based.
Assay [2] has as its system Plasmodium falciparum. The assay can be described thus: Antimalarial activity against Plasmodium falciparum Dd2. In kind it is functional, organism-based.
The target of assay [3] is T1, Enoyl-acyl-carrier protein reductase (Plasmodium falciparum, UniProt Q965D5).
T1 sequence (Q965D5 whole entry): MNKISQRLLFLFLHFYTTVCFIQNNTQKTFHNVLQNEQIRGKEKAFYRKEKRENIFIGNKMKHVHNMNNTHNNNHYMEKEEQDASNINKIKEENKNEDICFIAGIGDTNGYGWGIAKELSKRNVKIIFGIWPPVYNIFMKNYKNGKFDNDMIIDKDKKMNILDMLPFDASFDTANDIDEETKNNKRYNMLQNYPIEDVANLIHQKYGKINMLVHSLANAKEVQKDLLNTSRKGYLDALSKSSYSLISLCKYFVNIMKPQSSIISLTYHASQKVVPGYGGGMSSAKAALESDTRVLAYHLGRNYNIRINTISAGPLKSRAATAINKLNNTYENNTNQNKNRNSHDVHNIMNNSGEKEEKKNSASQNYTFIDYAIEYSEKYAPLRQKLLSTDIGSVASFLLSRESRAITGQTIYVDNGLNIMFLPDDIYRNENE
The assay can be described thus: Inhibition of Plasmodium falciparum ENR enzymatic activity.

Turning to `Oc1cc(Cl)ccc1Oc1ccc(Cl)cc1CNCc1ccc(-c2ccccc2)cc1`, the 50% effective concentration (EC50) – broadly, the concentration at which the effect is half-maximal – in assay [1] amounted to 230 nM; in assay [2] it was 150 nM. Besides, in assay [3], the IC50 (commonly the concentration that gives 50% inhibition) stood at 35000 nM.
`Oc1cc(Cl)ccc1Oc1ccc(Cl)cc1CN1CCN(c2ccccc2)CC1`: the EC50 in assay [1] came to 14000 nM; in assay [2], 15000 nM. For the same compound, the IC50 in assay [3] was determined as 6100 nM.
The matching figures for `CC(=O)N(Cc1ccc(Cl)cc1)Cc1cc(Cl)ccc1Oc1ccc(Cl)cc1O`: 3500 nM, 5900 nM and 28000 nM.
The matching figures for `NCc1ccccc1Oc1ccc(Cl)cc1O`: 9700 nM, 7200 nM and above 50000 nM.
In the case of `Oc1cc(Cl)ccc1Oc1ccccc1CNCc1ccc(Cl)cc1`, the EC50 is 330 nM in assay [1] and 300 nM in assay [2]. Besides, half-maximal inhibition in assay [3] (IC50) was put at 35000 nM.
As to `Oc1cc(Cl)ccc1Oc1ccccc1CNCCCc1ccccc1`, the EC50 in assay [1] is 320 nM; in assay [2] it was 390 nM. For the same compound, the midpoint of inhibition in assay [3], the IC50, lay at 19000 nM.
For `Oc1cc(Cl)ccc1Oc1ccc(Cl)cc1CNc1cccc2ccccc12`, the figures for the EC50 in assay [1] and in assay [2] were 2600 nM and 2200 nM, respectively. Moreover, in assay [3], the IC50 was above 50000 nM.
As for `CN(Cc1ccc(Cl)cc1)C(C)(C)c1cc(Cl)ccc1Oc1ccc(Cl)cc1O`, the half-maximal effective concentration (EC50) is 140 nM in assay [1] and 380 nM in assay [2]. Also, the IC50 in assay [3] was 27000 nM.
Take `Oc1cc(Cl)ccc1Oc1ccc(Cl)cc1CN1CCN(C(c2ccccc2)c2ccccc2)CC1`: the EC50 came to 2100 nM in assay [1] and 1400 nM in assay [2]. Besides, in assay [3], the IC50 was above 50000 nM.
For `O=S(=O)(NCc1cc(Cl)ccc1Oc1ccc(Cl)cc1O)c1ccccc1`, the EC50 in assay [1] stood at 11000 nM; in assay [2] it was 17000 nM. The IC50 in assay [3] was 15000 nM.
`Oc1cc(Cl)ccc1Oc1ccc(Cl)cc1CNCc1ccc(Cl)cc1`: the figures for the EC50 in assay [1] and in assay [2] were 320 nM and 270 nM, respectively. Also, in assay [3], it took 7200 nM to reach half-maximal inhibition (IC50).
As to `Nc1ccccc1Oc1ccc(Cl)cc1O`, the EC50 amounted to 83000 nM in assay [1] and 140000 nM in assay [2]. In assay [3], this compound gave an IC50 of 7000 nM.
In the case of `O=C(NCc1cc(Cl)ccc1Oc1ccc(Cl)cc1O)c1ccccc1`, the EC50 in assay [1] was 8600 nM; in assay [2] it was 12000 nM. In assay [3], this compound yielded an IC50 of 18000 nM.
On to `Oc1cc(Cl)ccc1Oc1ccc(Cl)cc1CN1CCCCC1`, for which the EC50 in assay [1] came to 730 nM; in assay [2], 480 nM. In assay [3], this compound had an IC50 above 50000 nM.
As for `COc1cc(Cl)ccc1Oc1ccccc1CNCc1ccc(Cl)cc1`, the figures for the EC50 in assay [1] and in assay [2] were 19000 nM and 24000 nM, respectively. The compound also showed an IC50 in assay [3] above 50000 nM.
`Oc1cc(Cl)ccc1Oc1ccccc1CNCCc1ccccc1`: the EC50 in assay [1] came out at 780 nM; in assay [2], 750 nM. This compound registered an IC50 in assay [3] of 2500 nM.
Consider `Oc1cc(Cl)ccc1Oc1ccc(Cl)cc1CNc1ccc2ccccc2c1`, for which the values for the EC50 in assay [1] and in assay [2] were 210 nM and 140 nM, respectively. In assay [3], the 50% inhibitory concentration (IC50) amounted to 26000 nM.
In the case of `Oc1cc(Cl)ccc1Oc1ccccc1CNCc1ccccc1`, the EC50 in assay [1] was 490 nM; in assay [2], 420 nM. The same compound had an IC50 in assay [3] of 10000 nM.
The matching figures for `CC(C)(NCc1ccc(Cl)cc1)c1cc(Cl)ccc1Oc1ccc(Cl)cc1O`: 410 nM, 350 nM and 7200 nM.
On to `Oc1cc(Cl)ccc1Oc1ccccc1CNc1ccc2ccccc2c1`, for which the values for the EC50 in assay [1] and in assay [2] were 450 nM and 330 nM, respectively. The compound further registered an IC50 in assay [3] of 46000 nM.
Turning to `Oc1cc(Cl)ccc1Oc1ccc(Cl)cc1CNCc1ccc2c(c1)CCO2`, the EC50 in assay [1] turned out to be 180 nM; in assay [2], 110 nM. Also, the IC50 in assay [3] is 9000 nM.
Turning to `Oc1cc(Cl)ccc1Oc1ccc(Cl)cc1CN1CCN(Cc2ccccc2)CC1`, the EC50 in assay [1] is 630 nM; in assay [2], 620 nM. In assay [3], inhibition was half-maximal at 11000 nM (IC50).
The matching figures for `Oc1cc(Cl)ccc1Oc1ccc(Cl)cc1CN1CCCC1`: 500 nM, 450 nM and above 50000 nM.
The matching figures for `CN(Cc1ccc(Cl)cc1)Cc1cc(Cl)ccc1Oc1ccc(Cl)cc1O`: 250 nM, 190 nM and 22000 nM.
The matching figures for `CN(C)Cc1cc(Cl)ccc1Oc1ccc(Cl)cc1O`: 180 nM, 220 nM and 19000 nM.
Consider `Oc1cc(Cl)ccc1Oc1ccccc1CNc1cccc2ccccc12`, for which the figures for the EC50 in assay [1] and in assay [2] were 300 nM and 370 nM, respectively. For the same compound, the IC50 in assay [3] was determined as 11000 nM.
Take `NCc1cc(Cl)ccc1Oc1ccc(Cl)cc1O`: the EC50 in assay [1] worked out at 2700 nM; in assay [2] it was 2000 nM. The compound further returned an IC50 in assay [3] above 50000 nM.
Turning to `CNCc1cc(Cl)ccc1Oc1ccc(Cl)cc1O`, the EC50 in assay [1] worked out at 580 nM; in assay [2], 470 nM. In assay [3], this compound displayed an IC50 of 27000 nM.
On to `Oc1cc(Cl)ccc1Oc1ccc(Cl)cc1CNCc1ccccc1`, for which the EC50 in assay [1] amounted to 770 nM; in assay [2] it was 830 nM. Further, in assay [3], inhibition was half-maximal at 3300 nM (IC50).
